Structures can show the parent of a compound that is named as a salt. Where two headings read alike, the source gives them in different places. Square brackets hold non-standard residues; d marks the D form. Peptide text beside a SMILES is read from it. * marks the point of attachment. Sta = CC(C)C[C@H](N)[C@@H](O)CC(=O)O; Isovaleryl = CC(C)CC(=O)*

The subject of the test is ATGL-KO iPSCs. The test is described as follows: High throughput iPSC chemical screening, Oil Red O (ORO) lipid accumulation. On Z-score: test concentration or dose not given here. As to conditions: for Rank in normalized ORO score from screen: glycolytic switch compounds. Type of test: cell-based, mouse.
[1] abbreviates: normalized ORO level vs DMSO-treated cells, compound present during 7 days differentiation, 96-well, negative = decrease in lipid accumulation.

As to `COc1ccc2[nH]c([S+]([O-])Cc3ncc(C)c(OC)c3C)nc2c1` (stereo not drawn) [Omeprazole], the Z-score under setting [1] is reported as −0.5848.
With `Cc1nccn1CC1CCc2c(c3ccccc3n2C)C1=O` (stereo not drawn) [Ondansetron Hydrochloride], under setting [1], the Z-score is recorded as −0.6933.
On the same count and under the same terms, the same measure for `Cc1ncc([N+](=O)[O-])n1CC(O)CCl` (stereo not drawn) [Ornidazole]: 0.7824; for `Cc1ccccc1C(OCCN(C)C)c1ccccc1` (stereo not drawn) [Orphenadrine hydrochloride]: −0.3046.
In the case of `CCN(CC)CCc1nc(-c2ccccc2)no1.O=C(O)CC(O)(CC(=O)O)C(=O)O` [Oxalamine citrate salt], the Z-score under setting [1] was −1.3452.
The compound `CN1CCCN=C1/C=C/c1cccc(O)c1.O=C(O)c1cc2ccccc2c(Cc2c(O)c(C(=O)O)cc3ccccc23)c1O` [Oxantel pamoate] gave a Z-score under setting [1] of 1.422.
For the compound `O=C(O)CCc1nc(-c2ccccc2)c(-c2ccccc2)o1` [Oxaprozin], under setting [1], the Z-score is −1.009.
Take `CN(C(=O)CN(CCO)CC(=O)N(C)C(C)(C)Cc1ccccc1)C(C)(C)Cc1ccccc1` [Oxethazaine]: the Z-score under setting [1] is −0.9515.
Same read-out and setting: the same measure for `CCn1cc(C(=O)O)c(=O)c2cc3c(cc21)OCO3` [Oxolinic acid]: −1.0488; for `C=CCOc1ccccc1OCC(O)CNC(C)C` (stereo not drawn) [Oxprenolol hydrochloride]: −0.2057.
On the same count and under the same terms, the same measure for `COc1ccc(C(=O)c2ccccc2)c(O)c1` [Oxybenzone]: −1.1732; for `CCN(CC)CC#CCOC(=O)C(O)(c1ccccc1)C1CCCCC1` (stereo not drawn) [Oxybutynin chloride]: −1.0993; for `Cc1cc(C(C)(C)C)c(O)c(C)c1CC1=NCCN1` [Oxymetazoline hydrochloride]: 0.1199.
For `CCCCC1C(=O)N(c2ccccc2)N(c2ccc(O)cc2)C1=O` (stereo not drawn) [Oxyphenbutazone], the Z-score under setting [1] is listed as −1.1165.
The same measure, in the same setting: the same measure for `CN(C)[C@@H]1C(O)=C(C(N)=O)C(=O)[C@@]2(O)C(O)=C3C(=O)c4c(O)cccc4[C@@](C)(O)[C@H]3[C@H](O)[C@@H]12` [Oxytetracycline dihydrate]: 1.185; for `O=C(O)/C=C/c1ccc(Cn2ccnc2)cc1` [Ozagrel hydrochloride]: −0.6787; for `CC(=O)O[C@H]1C(=O)[C@@]2(C)[C@H]([C@H](OC(=O)c3ccccc3)[C@]3(O)C[C@H](OC(=O)[C@H](O)[C@@H](NC(=O)c4ccccc4)c4ccccc4)C(C)=C1C3(C)C)[C@]1(OC(C)=O)CO[C@@H]1C[C@@H]2O` [Paclitaxel]: 48.9183.
Under setting [1], `COc1cc2c(cc1OC)-c1cc3ccc(OC)c(OC)c3c[n+]1CC2` [Palmatine chloride] returned a Z-score of 6.905.
`CC(=O)O[C@H]1C[C@@H]2CC[C@@H]3[C@H](CC[C@@]4(C)[C@H]3C[C@H]([N+]3(C)CCCCC3)[C@@H]4OC(C)=O)[C@@]2(C)C[C@@H]1[N+]1(C)CCCCC1` [Pancuronium bromide] yielded a Z-score under setting [1] of 0.2708.
As for `CC(C)(CO)[C@@H](O)C(=O)NCCCO` [Panthenol (D)], under setting [1], the Z-score was −0.069.
Turning to `CC(C)(CO)[C@@H](O)C(=O)NCCC(=O)O` [Pantothenic acid calcium salt monohydrate], the Z-score under setting [1] is recorded as −1.5008.
The same measure, in the same setting: next, `COc1ccc(Cc2nccc3cc(OC)c(OC)cc23)cc1OC` [Papaverine hydrochloride]: 9.542; `CCCCc1ccc2[nH]c(NC(=O)OC)nc2c1` [Parbendazole]: 39.1106.
`C#CCN(C)Cc1ccccc1` [Pargyline hydrochloride]: the Z-score under setting [1] is listed as −0.735.
As for `NC[C@@H]1O[C@H](O[C@H]2[C@@H](O)[C@H](O[C@@H]3[C@@H](O)[C@H](N)C[C@H](N)[C@H]3O[C@H]3O[C@H](CO)[C@@H](O)[C@H](O)[C@H]3N)O[C@@H]2CO)[C@H](N)[C@@H](O)[C@@H]1O` [Paromomycin sulfate], the Z-score under setting [1] is −0.0138.
For `Fc1ccc([C@@H]2CCNC[C@H]2COc2ccc3c(c2)OCO3)cc1` [Paroxetine Hydrochloride], the Z-score under setting [1] was −0.9182.
On to `CN1C(C)(C)CCCC1(C)C` [Pempidine tartrate], for which, under setting [1], the Z-score is −0.8069.
In the case of `CC(C)(C)NC[C@H](O)COc1ccccc1C1CCCC1` [Penbutolol sulfate], under setting [1], the Z-score is −0.627.
Under setting [1], `N=C(N)c1ccc(OCCCCCOc2ccc(C(=N)N)cc2)cc1` [Pentamidine isethionate] registered a Z-score of 14.9126.
`O=C(O)CN(CCN(CC(=O)O)CC(=O)O)CCN(CC(=O)O)CC(=O)O` [Pentetic acid] gave a Z-score under setting [1] of 0.9077.
For `C[N+]1(CCCCC[N+]2(C)CCCC2)CCCC1.O=C([O-])C(O)C(O)C(=O)O.O=C([O-])C(O)C(O)C(=O)O` [Pentolinium bitartrate], the Z-score under setting [1] is listed as −0.9629.
Still for that read-out and setting: the same measure for `CC(=O)CCCCn1c(=O)c2c(ncn2C)n(C)c1=O` [Pentoxifylline]: −1.1547; for `C1CCc2nnnn2CC1` [Pentylenetetrazole]: 0.6653.
For `CC(C)CC(=O)N[C@H](C(=O)N[C@H](C(=O)N[C@@H](CC(C)C)[C@@H](O)CC(=O)N[C@@H](C)C(=O)N[C@@H](CC(C)C)[C@@H](O)CC(=O)O)C(C)C)C(C)C` [Pepstatin A] (Isovaleryl-VV[Sta]A[Sta]-OH), under setting [1], the Z-score is 1.261.
On to `CCCN1C[C@H](CSC)C[C@@H]2c3cccc4[nH]cc(c34)C[C@H]21` [Pergolide mesylate], for which the Z-score under setting [1] is recorded as −0.3289.
Consider `OCCN1CCN(CCCN2c3ccccc3Sc3ccc(Cl)cc32)CC1` [Perphenazine], for which the Z-score under setting [1] is −1.5218.
Compound `CCOc1ccc(NC(C)=O)cc1` [Phenacetin] came in with a Z-score under setting [1] of 0.5.
Same read-out and setting: next, `Nc1ccc(/N=N/c2ccccc2)c(N)n1` [Phenazopyridine hydrochloride]: −0.2483.
`NNCCc1ccccc1` [Phenelzine sulfate]: the Z-score under setting [1] is 0.6672.
In the case of `CC(Oc1ccccc1)C(=O)N[C@@H]1C(=O)N2[C@@H]1SC(C)(C)[C@@H]2C(=O)O` (stereo partly drawn) [Phenethicillin potassium salt], the Z-score under setting [1] is given as −0.0851.
Regarding `[H]/N=C(/N)N/C(=N/[H])NCCc1ccccc1` [Phenformin hydrochloride], the “Rank in normalized ORO score from screen” value amounted to 524. For the same compound, under setting [1], the Z-score was −0.2777.
`O=C1c2ccccc2C(=O)C1c1ccccc1` [Phenindione] yielded a Z-score under setting [1] of 0.2654.
On the same count and under the same terms, next, `CN(C)CCC(c1ccccc1)c1ccccn1` (stereo not drawn) [Pheniramine maleate]: 0.3153.
Consider `CC(COc1ccccc1)N(CCCl)Cc1ccccc1` (stereo not drawn) [Phenoxybenzamine hydrochloride], for which the “Rank in normalized ORO score from screen” value worked out at 702. Under setting [1], this compound had a Z-score of 0.2031.
Turning to `CN1C(=O)CC(c2ccccc2)C1=O` (stereo not drawn) [Phensuximide], the Z-score under setting [1] stood at 0.02844.
Same read-out and setting: the same measure for `Cc1ccc(N(CC2=NCCN2)c2cccc(O)c2)cc1` [Phentolamine hydrochloride]: 0.3245.
Regarding `CC(N)C(O)c1ccccc1` (stereo not drawn) [Phenylpropanolamine hydrochloride], the Z-score came out at 0.2625.
`O=C(O)c1ccccc1C(=O)Nc1ccc(S(=O)(=O)Nc2nccs2)cc1` [Phthalylsulfathiazole]: the Z-score under setting [1] is listed as −1.0074.
`COc1ccc(C(=O)NCc2cccnc2)cc1C(=O)NCc1cccnc1` [Picotamide monohydrate]: the Z-score under setting [1] is −1.2123.

(Values after US9393221B2, “Methods and compounds for reducing intracellular lipid storage” (THE GENERAL HOSPITAL CORPORATION, priority 2011, dated 2016).)
